Results reported in patent EP2221291B1, “CYCLOHEXENONE COMPOUNDS FROM ANTRODIA CAMPHORATA AND PHARMACEUTICAL COMPOSITIONS THEREOF USEFUL FOR TREATING AUTOIMMUNE DISEASES” (Golden Biotechnology Corporation, priority 2007, dated 2009).

Columns and labels:
[1] = system: anti-dsDNA antinuclear antibodies in female NZB/WF1 SLE mice; test: Titers of anti-dsDNA antinuclear antibodies in plasma of SLE mouse model (Mouse Anti-dsDNA IgG ELISA); format: in vivo; settings: for titer of anti-dsDNA antinuclear antibodies decreased to: week 8, oral once per day (cyclohexenone compounds 50 mg/kg; prednisolone 1.25 mg/kg), reference of the percentage not stated
Description: (§1) Female NZB/WF1 mice spontaneously develop human SLE-like syndromes, such as generation of antinuclear autoantibodies, proteinuria, and renal toxicity to cause death. The disease is more severe in female mice than in male mice; the morbidity of female mice is also higher than that of male mice. Therefore, female NZB/WF1 mice were used for screening anti-SLE drugs in this study.
(§2) Thirty female NZB/WF1 mice (purchased from Jackson Lab, USA) between 12-24 weeks of age were analyzed biweekly to determine proteinuria levels, monthly to assess the titers of antinuclear autoantibody (ANA). The increased titers of ANA and positive response implicated that female NZB/WF1 mice were going to develop SLE and were ready for grouping. At 22 weeks of age, the animals showing the abovementioned syndromes were randomly divided into 3 groups (10 mice per group, water was administered to negative control group, steroid was given to positive control group, and cyclohexenone compounds of Antrodia camphorata was administered to experiment group), and the start time for the experiment was set as week zero. In addition, ten B6 mice (purchased from National Laboratory Animal Center, Taiwan) without SLE syndrome were normal mice served as blank group. Table 1 Treatment of animal groups
(§3) The blank group in Table 1 was B6 mice of no SLE syndrome, which received no treatment and normal diet for natural growth. NZB/WF1 female mice that were able to express SLE syndromes were served in negative control and positive control groups. Mice in the former group received normal water; in the latter were orally medicated with 1.25 mg/kg of prednisolone, the SLE drug. Mice in the experiment group were orally medicated with 50 mg/kg of cyclohexenone compounds from Example 1. The mice were fed with the abovementioned substances once per day starting at 23 weeks of age, and this period of time was referred to as the first week of this experiment. […]
The titers of dsDNA antinuclear antibodies were determined in this study to assess the effects of cyclohexenone compounds from Antrodia camphorata on SLE mice. […]

female NZB/WF1 SLE mice = test: Changes of proteinuria in SLE mouse model (Bio-Rad protein assay of urine); format: in vivo; settings: for proteinuria level: after 6 weeks of experiment, oral once per day (cyclohexenone compounds 50 mg/kg; prednisolone 1.25 mg/kg), negative control 89.16 vs. 246 mg/dl
Description: as §1, §2
as §3, with “1.” for “1. The mice were fed with the abovementioned substances once per day starting at 23 weeks of age, and this period of time was referred to as the first week of this experiment.”
SLE patients develop renal inflammation and damage, which cause leakage of protein from kidney into the fluid. […] Ten µl of urine was assayed with Bio-Rad Protein Assay Dye Reagent Concentrate (Bio-Rad Laboratories, USA) and read under […] with an ELISA analyzer to determine the protein concentration with a standard curve.

Structure (SMILES) | titers of anti-dsDNA antinuclear antibodies compared with negative group ([1]; during 8 weeks of experiment, oral 50 mg/kg once per day) | titer of anti-dsDNA antinuclear antibodies decreased to [1] | proteinuria level (female NZB/WF1 SLE mice) | increase in proteinuria level than that before experiment (female NZB/WF1 SLE mice; after 6 weeks, oral 50 mg/kg once per day, negative control 2.76-fold)
COC1=C(OC)C(O)C(CC=C(C)CCC=C(C)CCC=C(C)C)C(C)C1=O (stereo not drawn) [4-hydroxy-2,3-dimethoxy-6-methyl-5(3,7,11-trimethyl-dodeca-2,6,10-trienyl)-cyclohex-2-enone] | significantly lower titers | 34% | 118.2 mg/dL | 1.3 fold
C[C@]12C=CC(=O)C=C1CC[C@@H]1[C@@H]2[C@@H](O)C[C@@]2(C)[C@H]1CC[C@]2(O)C(=O)CO [prednisolone, reference compound] |  | around 50% | 32.6 mg/dL | 
